{"source": "patent US20110136162A1", "about": "“Compositions and Methods for Functionalized Patterning of Tissue Engineering Substrates Including Bioprinting Cell-Laden Constructs for Multicompartment Tissue Chambers” (Drexel University, priority 2009, published 2011)", "system": "Human hepatocytes (HepG2) and human melanoma cells (M10)", "test": "Micronuclei in binucleated cells after γ-radiation, cells treated with amifostine", "format": "cell-based", "conditions": "binucleated cells after 60 hours", "protocol": "Human hepatocytes (HepG2) and human melanoma cells (M10) were cultured in α-Minimum Essential Medium (Gibco) at 37° C. in 5% CO2. Cells were mixed with BME (i.e., Basement Membrane Matrix Phenol Red-free (BD Biosciences Matrigel)) chilled to 4° C. and printed onto a glass microfluidic chip having a PDMS substrate (see FIGS. 13 and 14) using a temperature-controlled BME printing apparatus 0-5° C. (see, for example, FIGS. 9 and 10).\nAfter the 4 hour treatment with amifostine, the cells were exposed to 2 Grays of γ-radiation from a cesium source. […] Then, the cells were incubated and allowed to divide for 60 hours and examined for evidence of radiation damage.\nBinucleated cells were examined for the presence of micronuclei as evidence of radiation damage.", "data": [{"compound": "NCCCNCCSP(=O)(O)O", "note": "[amifostine]", "values": [{"measurement": "radiation-treated cells found to have micronuclei", "setting": "microfluidic chip, 1 mM amifostine perfusion 4 hours before and 90 minutes after 2 Grays γ-radiation", "value": "about 3%"}, {"measurement": "radiation-treated cells found to have micronuclei", "setting": "tissue culture plate, 1 mM amifostine 4 hours before and 90 minutes after 2 Grays γ-radiation", "value": "about 4%"}]}]}
